Molecules are shown by their SMILES. Activity calls are given as the source filed them. Cut-off read from the data, not from the text of the source, for most assays here: actives have a measured EC50 and inactives only a lower limit.

Experiment [1] has as its system Vero. The experiment in a line: host cell cytotoxicity of antiviral hits, dose response, cytotoxicity control for West Nile virus antiviral project, secondary assay (AID 1650). The class given is functional. As to conditions: Chlorocebus sabaeus.
Experiment [2] deals with Vero. As to the kind of experiment: cells. The class given is functional, cell-based. As to conditions: Chlorocebus sabaeus.
The test system of experiment [3] is Vero. As to the kind of experiment: cells. It counts as functional. As to conditions: Chlorocebus sabaeus.
A short description of experiment [4]: inhibitors of PGC1a acetylation in cells, dose response, cell-based, cherry-picked samples (AID 720514).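 Note: potency may reflect raised or lowered acetylation signal.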 The class given is functional.
Experiment [5] is described as follows: inhibitors of intracellular T. cruzi replication, confirmation, NIH3T3 host cells, beta-gal luminescence (AID 2044).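 Note: intracellular parasites grown in NIH/3T3 mouse fibroblasts as host cells; luminescent beta-galactosidase reporter signal from transgenic T. cruzi replicating inside host cells; inhibitors lower the luminescence signal.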 It counts as functional, cell-based.
Experiment [6] can be described thus: cytotoxicity toward NIH3T3 fibroblasts, dose response, counter-screen, cell-based, ATP luminescence, mouse fibroblasts (AID 2010).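 Note: cells exposed to compound for about 90 hours before reading.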 The class given is functional. (A counterscreen serves to expose hits that act by an unwanted route or on another target.)
Experiment [7] is described as follows: cells.
Experiment [8] addresses T1, Aryl hydrocarbon receptor (Homo sapiens, UniProt P35869).
T1 sequence (P35869 whole entry): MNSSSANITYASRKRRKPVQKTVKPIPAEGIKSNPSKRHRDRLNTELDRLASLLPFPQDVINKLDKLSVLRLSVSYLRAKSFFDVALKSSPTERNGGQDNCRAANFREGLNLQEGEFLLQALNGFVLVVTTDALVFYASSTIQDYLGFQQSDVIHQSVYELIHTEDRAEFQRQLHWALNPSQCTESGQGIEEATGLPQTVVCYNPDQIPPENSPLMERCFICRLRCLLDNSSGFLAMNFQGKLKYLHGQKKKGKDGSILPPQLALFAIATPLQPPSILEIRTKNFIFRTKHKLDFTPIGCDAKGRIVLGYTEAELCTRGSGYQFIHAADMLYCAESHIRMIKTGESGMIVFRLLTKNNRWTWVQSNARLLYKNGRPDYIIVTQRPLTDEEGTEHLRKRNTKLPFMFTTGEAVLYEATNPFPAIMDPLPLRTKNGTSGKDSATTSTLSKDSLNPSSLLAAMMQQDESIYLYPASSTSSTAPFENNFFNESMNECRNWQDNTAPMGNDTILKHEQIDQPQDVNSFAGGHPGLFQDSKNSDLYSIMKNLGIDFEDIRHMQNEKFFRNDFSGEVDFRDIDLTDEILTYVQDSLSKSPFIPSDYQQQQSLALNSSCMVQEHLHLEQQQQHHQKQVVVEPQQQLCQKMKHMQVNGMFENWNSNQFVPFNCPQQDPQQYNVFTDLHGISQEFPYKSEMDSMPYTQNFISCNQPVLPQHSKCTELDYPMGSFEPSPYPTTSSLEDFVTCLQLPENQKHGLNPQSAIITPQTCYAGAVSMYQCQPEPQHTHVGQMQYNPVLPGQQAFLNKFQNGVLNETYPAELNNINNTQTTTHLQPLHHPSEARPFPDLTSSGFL
The experiment in a line: Luminescence-based cell-based high throughput dose response assay for activators of the Aryl Hydrocarbon Receptor (AHR). [Related pubchem assays: 2796 (Primary screen (AHR activators in singlicate)), 2845 (Confirmation screen (AHR activators in triplicate)), 434939 (Counterscreen (PXR activators in triplicate)), 2804 (Summary (AHR activators))]. It counts as ADME.

A short description of experiment [9]: inhibitors of firefly luciferase expression or activity, dose response, H4 neuroglioma cells, luminescence (AID 1990). The class given is functional, cell-based.
Experiment [10] can be described thus: insulin promoter down-regulators in MIN6 cells, imaging, high-content screening, mouse beta cells (AID 1628). It counts as functional.
The subject of experiment [11] is BJ. As to the kind of experiment: cytotoxicity toward BJ-TERT fibroblasts, dose response, cell-based, RAS-independent, luminescence (AID 1933). It counts as functional. The conditions noted are these: Homo sapiens.
A short description of experiment [12]: Luminescence Cell-Based Dose Response HTS to Identify Inhibitors of 5'UTR Stem-Loop Driven Prion Protein mRNA Translation in H4 Neuroglioblastoma Cells. [Related pubchem assays: 1827 (Project Summary), 1813 (Primary HTS)]. It counts as functional.
The nature of experiment [13]: cytotoxicity in MIN6 insulinoma cells, dose response, cytotoxicity control, cell-based, mouse insulinoma (AID 2122).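 Note: confirmatory high-throughput counterscreen run to flag cytotoxic compounds; mouse MIN-6 beta cells carrying an insulin promoter eGFP reporter.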 The class given is functional.
Experiment [14] in a line: inhibitors of SNCA 5'UTR-driven reporter translation, confirmation, H4 neuroglioma cells, luminescence (AID 1988). The class given is functional, cell-based.
Experiment [15] concerns BJ. The experiment in a line: cells. The class given is functional, cell-based. As to conditions: Homo sapiens.
Experiment [16] has as its system BJ. As to the kind of experiment: cytotoxicity toward BJ-TERT-LT-ST fibroblasts, dose response, cell-based, RAS-independent, luminescence (AID 1935).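 Note: BJ fibroblasts immortalized with TERT plus LT and ST oncogenes.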 The class given is functional. As to conditions: Homo sapiens.
Experiment [17] in a line: cytotoxicity toward DRD oncogenic fibroblasts, dose response, cell-based, non-viral oncogenic, luminescence (AID 1934). The class given is functional. As to conditions: Homo sapiens.
For experiment [18], the target named is T2, Heat shock factor protein 1 (Mus musculus, UniProt P38532).
T2 sequence (P38532 whole entry): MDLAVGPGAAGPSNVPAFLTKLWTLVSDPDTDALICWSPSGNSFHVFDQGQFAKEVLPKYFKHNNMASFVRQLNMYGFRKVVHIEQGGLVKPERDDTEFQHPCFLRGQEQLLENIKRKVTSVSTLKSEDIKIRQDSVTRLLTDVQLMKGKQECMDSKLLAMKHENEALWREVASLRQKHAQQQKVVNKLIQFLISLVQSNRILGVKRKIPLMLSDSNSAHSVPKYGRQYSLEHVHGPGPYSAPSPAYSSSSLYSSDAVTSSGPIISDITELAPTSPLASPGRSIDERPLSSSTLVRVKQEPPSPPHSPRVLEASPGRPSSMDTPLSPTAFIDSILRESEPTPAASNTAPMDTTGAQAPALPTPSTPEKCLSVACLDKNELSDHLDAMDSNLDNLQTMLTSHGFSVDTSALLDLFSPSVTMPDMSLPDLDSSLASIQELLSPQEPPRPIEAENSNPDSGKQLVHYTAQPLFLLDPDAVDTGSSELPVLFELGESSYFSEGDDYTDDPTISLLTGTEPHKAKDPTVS
The experiment in a line: HSF1 potentiators in luciferase reporter cells, confirmation, cell-based, NIH3T3, luminescence, dose retest (AID 435004).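 Note: stress induced by proteasome inhibitor MG132 added 30 min after compound; luciferase reporter driven by HSF1 response element in NIH3T3 cells; actives raise luminescence as potentiators of the MG132 stress response.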 The class given is functional. On the technique in general: A reporter such as luciferase makes a cellular process visible.

A short description of experiment [19]: cytotoxicity in HPDE-C7 cells, cell-based, fluorescence, HTS (AID 430). The class given is functional. The conditions noted are these: Homo sapiens.
A short description of experiment [20]: cytotoxicity in KRAS-transformed pancreatic duct cells, primary screen, cell-based, fluorescence, HTS (AID 431).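 Note: cell line used: HPDE-C7K.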 It counts as functional. The conditions noted are these: Homo sapiens.
The target of experiment [21] is T3, Replicative DNA helicase DnaB (Mycobacterium tuberculosis, UniProt P9WMR3).
T3 sequence (P9WMR3 whole entry): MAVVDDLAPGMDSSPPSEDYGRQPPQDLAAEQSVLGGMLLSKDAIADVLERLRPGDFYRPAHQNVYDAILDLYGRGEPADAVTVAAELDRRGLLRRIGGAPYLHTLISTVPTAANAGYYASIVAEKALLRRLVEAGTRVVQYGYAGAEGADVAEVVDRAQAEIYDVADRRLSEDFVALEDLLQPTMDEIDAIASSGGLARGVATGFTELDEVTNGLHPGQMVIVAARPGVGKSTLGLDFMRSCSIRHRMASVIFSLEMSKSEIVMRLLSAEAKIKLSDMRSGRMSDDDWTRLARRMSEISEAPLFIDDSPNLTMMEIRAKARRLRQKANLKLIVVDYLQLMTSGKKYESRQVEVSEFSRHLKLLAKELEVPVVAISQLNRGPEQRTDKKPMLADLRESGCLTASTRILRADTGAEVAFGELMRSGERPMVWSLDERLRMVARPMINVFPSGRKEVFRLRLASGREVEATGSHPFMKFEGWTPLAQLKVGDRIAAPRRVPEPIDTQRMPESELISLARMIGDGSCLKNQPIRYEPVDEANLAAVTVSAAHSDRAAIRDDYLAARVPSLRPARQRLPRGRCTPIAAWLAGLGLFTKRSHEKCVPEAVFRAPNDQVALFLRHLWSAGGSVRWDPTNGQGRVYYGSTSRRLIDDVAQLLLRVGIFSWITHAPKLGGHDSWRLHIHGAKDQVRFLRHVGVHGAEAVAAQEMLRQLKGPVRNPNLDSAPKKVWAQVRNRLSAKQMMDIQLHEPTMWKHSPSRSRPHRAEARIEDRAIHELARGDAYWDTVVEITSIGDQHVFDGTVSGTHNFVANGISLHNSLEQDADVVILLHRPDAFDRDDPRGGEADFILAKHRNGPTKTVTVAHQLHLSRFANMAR
The experiment in a line: DnaB intein splicing inhibitors, dose response, biochemical, cell-free fluorescence (AID 449749). It counts as functional.

Experiment [22] has as its target T4, Protein RecA (Mycobacterium tuberculosis, UniProt P9WHJ3).
T4 sequence (P9WHJ3 whole entry): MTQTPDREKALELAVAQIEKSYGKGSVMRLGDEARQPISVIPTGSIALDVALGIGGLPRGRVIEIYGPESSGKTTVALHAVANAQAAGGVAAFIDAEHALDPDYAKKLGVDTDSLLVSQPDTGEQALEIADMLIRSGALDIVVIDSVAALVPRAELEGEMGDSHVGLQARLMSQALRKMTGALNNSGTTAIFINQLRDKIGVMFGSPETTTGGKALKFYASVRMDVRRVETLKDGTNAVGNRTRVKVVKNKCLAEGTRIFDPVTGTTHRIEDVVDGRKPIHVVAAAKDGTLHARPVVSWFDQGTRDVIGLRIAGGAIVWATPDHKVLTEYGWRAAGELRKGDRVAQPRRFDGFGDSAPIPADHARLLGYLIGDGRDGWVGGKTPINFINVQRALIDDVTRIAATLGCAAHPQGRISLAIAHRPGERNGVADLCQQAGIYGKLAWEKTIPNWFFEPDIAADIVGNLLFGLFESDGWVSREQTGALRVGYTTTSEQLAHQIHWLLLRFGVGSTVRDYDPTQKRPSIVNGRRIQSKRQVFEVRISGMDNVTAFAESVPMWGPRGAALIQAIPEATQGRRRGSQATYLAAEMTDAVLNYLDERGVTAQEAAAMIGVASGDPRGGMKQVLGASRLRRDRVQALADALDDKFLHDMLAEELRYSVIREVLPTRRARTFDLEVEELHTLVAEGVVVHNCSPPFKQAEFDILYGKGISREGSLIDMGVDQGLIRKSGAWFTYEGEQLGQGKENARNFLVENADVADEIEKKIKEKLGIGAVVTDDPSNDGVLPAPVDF
As to the kind of experiment: Fluorescence Cell-Free Homogeneous Dose Retest to Identify Inhibitors of RecA-Intein Splicing Activity. [Related pubchem assays (depositor defined):AID2097, AID2223, AID489010, AID492950]. The class given is functional.

For orientation: CC50 means the concentration at which the toxic effect on the cells reaches its halfway point. In general, IC50 refers to the concentration that inhibits the measured activity by half. The AC50 is the midpoint of the concentration-response curve, whichever way the signal moves. With `Cc1nc2ccccn2c1C(=O)/C=C/c1ccc(F)cc1`, the results for the CC50 in [1] and in [3] were 25.6 µM (active) and 18.7 µM (active), respectively. In [2], the IC50 was > 25 µM (active). Moreover, the AC50 in experiment [4] was 0.76 µM (active).
Usually EC50 stands for the concentration needed to bring the measured effect to its halfway point. In the case of `CN(C)CC#CCC(O)(c1ccccc1)C1CCCC1` (stereo not drawn), the results for the EC50 in experiment [5], in [6] and in experiment [7] were < 0.1 µM (active), > 60 µM (not active) and 0.016 µM (active), respectively.
With `Cc1ccc2c(c1)c1nc3ccccc3nc1n2C`, the EC50 in [8] is 1 µM (active).
`Cn1c(Cl)cnc1C1CC(=O)c2cc(Cl)ccc2O1` (stereo not drawn): the EC50 in experiment [9] was 10.9 µM (active); in [11], 8.07 µM (active); in experiment [12], 10.1 µM (active); in experiment [14] it was > 120 µM (not active); in experiment [15], 8.32 µM (inconclusive); in [16], 7.45 µM (inconclusive). Further, the 50% effective concentration (EC50) was 7.73 µM (active) in experiment [17] and 38.8 µM (active) in [18]. The figures for the half-maximal inhibitory concentration (IC50) in experiment [10] and in [13] were 2.95 µM (active) and 1.98 µM (active), respectively. Also, the CC50 in [1] was 17.9 µM (active). Also, the concentration at half-maximal activity (AC50) in experiment [4] was 16.9 µM (active).
For `COc1ccc(-c2nnc(SC(=O)N3c4ccccc4Sc4ccccc43)o2)cc1`, the EC50 was 12.5 µM (active) in experiment [19], 8.96 µM (active) in experiment [20] and 0.451 µM (active) in experiment [22]. In addition, the concentration at half-maximal activity (AC50) in experiment [21] was 1.79 µM (active).
Consider `CN(C)CCN(C(=O)c1ccc(S(=O)(=O)N2CCc3ccccc32)cc1)c1nc2ccc(F)cc2s1`, for which the EC50 was < 0.1 µM (active) in [5], > 60 µM (not active) in [6] and 0.188 µM (active) in experiment [7].
Regarding `O=C(N/N=C/c1ccc(-c2ccccc2[N+](=O)[O-])o1)c1cncc(Br)c1`, in experiment [8], the EC50 is 6.71 µM (active).

These data come from ChEMBL document CHEMBL1201862, “PubChem BioAssay data set” (2004).
